According to ChEMBL document CHEMBL3045670, “Protective effect of selenium in Broccoli (Brassica oleracea) plants subjected to cadmium exposure” (J Agric Food Chem, 2008):
Activity calls are given as the source filed them. The rule behind the calls is not given here.

How the values were obtained:
Root [1] = experiment: Effect on cadmium level in roots of Brassica oleracea (Broccoli) seedlings grown in hydroponic culture containing 1 mg/L measured after 40 days after compound treatment; assay type: ADME; conditions: 960 h
Leaf [2] = experiment: Effect on cadmium level in leaves of Brassica oleracea (Broccoli) seedlings grown in hydroponic culture containing 1 mg/L measured after 40 days after compound treatment; assay type: ADME; conditions: 960 h
Fruit [3] = experiment: Effect on cadmium level in fruits of Brassica oleracea (Broccoli) seedlings grown in hydroponic culture containing 1 mg/L measured after 40 days after compound treatment; assay type: ADME; conditions: 960 h
Leaf [4] = experiment: Drug level in leaves of Brassica oleracea (Broccoli) seedlings grown in hydroponic culture containing 1 mg/L measured after 40 days after compound treatment; assay type: ADME; conditions: 960 h
Root [5] = experiment: Drug level in roots of Brassica oleracea (Broccoli) seedlings grown in hydroponic culture containing 1 mg/L measured after 40 days after compound treatment; assay type: ADME; conditions: 960 h
Fruit [6] = experiment: Drug level in fruits of Brassica oleracea (Broccoli) seedlings grown in hydroponic culture containing 1 mg/L measured after 40 days after compound treatment; assay type: ADME; conditions: 960 h
Root [7] = experiment: Effect on cadmium level in roots of Brassica oleracea (Broccoli) seedlings grown in hydroponic culture containing 1 mg/L in presence of 1 mg/L CdCl2 measured after 40 days after compound treatment; assay type: ADME; conditions: 960 h
Leaf [8] = experiment: Effect on cadmium level in leaves of Brassica oleracea (Broccoli) seedlings grown in hydroponic culture containing 1 mg/L in presence of 1 mg/L CdCl2 measured after 40 days after compound treatment; assay type: ADME; conditions: 960 h
Fruit [9] = experiment: Effect on cadmium level in fruits of Brassica oleracea (Broccoli) seedlings grown in hydroponic culture containing 1 mg/L in presence of 1 mg/L CdCl2 measured after 40 days after compound treatment; assay type: ADME; conditions: 960 h
Leaf [10] = experiment: Drug level in leaves of Brassica oleracea (Broccoli) seedlings grown in hydroponic culture containing 1 mg/L in presence of 1 mg/L CdCl2 measured after 40 days after compound treatment; assay type: ADME; conditions: 960 h
Root [11] = experiment: Drug level in roots of Brassica oleracea (Broccoli) seedlings grown in hydroponic culture containing 1 mg/L in presence of 1 mg/L CdCl2 measured after 40 days after compound treatment; assay type: ADME; conditions: 960 h
Fruit [12] = experiment: Drug level in fruits of Brassica oleracea (Broccoli) seedlings grown in hydroponic culture containing 1 mg/L in presence of 1 mg/L CdCl2 measured after 40 days after compound treatment; assay type: ADME; conditions: 960 h
Brassica oleracea [13] = experiment: Protective effect against cadmium-induced toxicity in Brassica oleracea (Broccoli) seedlings grown in hydroponic culture containing compound at 1 mg/L in presence of 1 mg/L CdCl2 assessed as chlorophyll level assessed per dry weight after 40 days after compound treatment by spectrophotometry (reference value: 118 +/- 12 mg/kg dry weight); assay type: functional
Brassica oleracea [14] = experiment: Effect on chlorophyll level assessed per dry weight in Brassica oleracea (Broccoli) seedlings grown in hydroponic culture containing compound at 1 mg/L after 10 days after compound treatment (reference value: 200 +/- 26 mg/kg); assay type: functional
Brassica oleracea [15] = experiment: Protective effect against cadmium-induced toxicity in Brassica oleracea (Broccoli) seedlings grown in hydroponic culture containing compound at 1 mg/L in presence of 1 mg/L CdCl2 assessed as chlorophyll level assessed per dry weight after 10 days after compound treatment by spectrophotometry (reference value: 120 +/- 8 mg/kg dry weight); assay type: functional
Brassica oleracea [16] = experiment: Reduction in MDA level in Brassica oleracea (Broccoli) seedlings grown in hydroponic culture containing compound at 1 mg/L after 30 days after compound treatment; assay type: functional, organism-based
Brassica oleracea [17] = experiment: Protective effect against cadmium-induced toxicity in Brassica oleracea (Broccoli) seedlings grown in hydroponic culture containing compound at 1 mg/L in presence of 1 mg/L CdCl2 assessed as reduction in MDA level after 30 days after compound treatment by spectrophotometry; assay type: functional, organism-based
Fruit [18] = experiment: Drug level in fruits of Brassica oleracea (Broccoli) seedlings grown in hydroponic culture containing compound at 1 mg/L in presence of 1 mg/L CdCl2 assessed as Se(IV) level measured after 40 days after compound treatment; assay type: ADME; conditions: 960 h
Fruit [19] = experiment: Drug level in fruits of Brassica oleracea (Broccoli) seedlings grown in hydroponic culture containing compound at 1 mg/L in presence of 1 mg/L CdCl2 assessed as SeMet level measured after 40 days after compound treatment; assay type: ADME; conditions: 960 h
Fruit [20] = experiment: Drug level in fruits of Brassica oleracea (Broccoli) seedlings grown in hydroponic culture containing compound at 1 mg/L in presence of 1 mg/L CdCl2 assessed as SeMetSeCys level measured after 40 days after compound treatment; assay type: ADME; conditions: 960 h
Leaf [21] = experiment: Drug level in leaves of Brassica oleracea (Broccoli) seedlings grown in hydroponic culture containing compound at 1 mg/L in presence of 1 mg/L CdCl2 assessed as SeMet level measured after 40 days after compound treatment; assay type: ADME; conditions: 960 h
Leaf [22] = experiment: Drug level in leaves of Brassica oleracea (Broccoli) seedlings grown in hydroponic culture containing compound at 1 mg/L in presence of 1 mg/L CdCl2 assessed as Se(IV) level measured after 40 days after compound treatment; assay type: ADME; conditions: 960 h
Leaf [23] = experiment: Drug level in leaves of Brassica oleracea (Broccoli) seedlings grown in hydroponic culture containing compound at 1 mg/L in presence of 1 mg/L CdCl2 assessed as SeMetSeCys level measured after 40 days after compound treatment; assay type: ADME; conditions: 960 h
Brassica oleracea [24] = experiment: Effect on tocopherol level in Brassica oleracea (Broccoli) seedlings grown in hydroponic culture containing compound at 1 mg/L after 40 days after compound treatment; assay type: functional, organism-based
Brassica oleracea [25] = experiment: Protective effect against cadmium-induced toxicity in Brassica oleracea (Broccoli) seedlings grown in hydroponic culture containing compound at 1 mg/L in presence of 1 mg/L CdCl2 assessed as attenuation of reduction in tocopherol level after 40 days after compound treatment by spectrophotometry; assay type: functional; set-up: scale not given: the % may be the effect or the level left
Brassica oleracea [26] = experiment: Effect on chlorophyll level assessed per dry weight in Brassica oleracea (Broccoli) seedlings grown in hydroponic culture containing compound at 1 mg/L after 40 days after compound treatment (reference value: 181 +/- 23 mg/kg); assay type: functional
Root [27] = experiment: Drug level in roots of Brassica oleracea (Broccoli) seedlings grown in hydroponic culture containing compound at 1 mg/L in presence of 1 mg/L CdCl2 assessed as Se(IV) level measured after 40 days after compound treatment; assay type: ADME; conditions: 960 h
Root [28] = experiment: Drug level in roots of Brassica oleracea (Broccoli) seedlings grown in hydroponic culture containing compound at 1 mg/L in presence of 1 mg/L CdCl2 assessed as SeMet level measured after 40 days after compound treatment; assay type: ADME; conditions: 960 h
Root [29] = experiment: Drug level in roots of Brassica oleracea (Broccoli) seedlings grown in hydroponic culture containing compound at 1 mg/L in presence of 1 mg/L CdCl2 assessed as SeMetSeCys level measured after 40 days after compound treatment; assay type: ADME; conditions: 960 h
Fruit [30] = experiment: Drug level in fruits of Brassica oleracea (Broccoli) seedlings grown in hydroponic culture containing compound at 1 mg/L assessed as SeMet level measured after 40 days after compound treatment; assay type: ADME; conditions: 960 h
Fruit [31] = experiment: Drug level in fruits of Brassica oleracea (Broccoli) seedlings grown in hydroponic culture containing compound at 1 mg/L assessed as Se(IV) level measured after 40 days after compound treatment; assay type: ADME; conditions: 960 h
Leaf [32] = experiment: Drug level in leaves of Brassica oleracea (Broccoli) seedlings grown in hydroponic culture containing compound at 1 mg/L assessed as SeMet level measured after 40 days after compound treatment; assay type: ADME; conditions: 960 h
Fruit [33] = experiment: Drug level in fruits of Brassica oleracea (Broccoli) seedlings grown in hydroponic culture containing compound at 1 mg/L assessed as SeMetSeCys level measured after 40 days after compound treatment; assay type: ADME; conditions: 960 h
Leaf [34] = experiment: Drug level in leaves of Brassica oleracea (Broccoli) seedlings grown in hydroponic culture containing compound at 1 mg/L assessed as Se(IV) level measured after 40 days after compound treatment; assay type: ADME; conditions: 960 h
Root [35] = experiment: Drug level in roots of Brassica oleracea (Broccoli) seedlings grown in hydroponic culture containing compound at 1 mg/L assessed as SeMet level measured after 40 days after compound treatment; assay type: ADME; conditions: 960 h
Leaf [36] = experiment: Drug level in leaves of Brassica oleracea (Broccoli) seedlings grown in hydroponic culture containing compound at 1 mg/L assessed as SeMetSeCys level measured after 40 days after compound treatment; assay type: ADME; conditions: 960 h
Root [37] = experiment: Drug level in roots of Brassica oleracea (Broccoli) seedlings grown in hydroponic culture containing compound at 1 mg/L assessed as Se(IV) level measured after 40 days after compound treatment; assay type: ADME; conditions: 960 h
Root [38] = experiment: Drug level in roots of Brassica oleracea (Broccoli) seedlings grown in hydroponic culture containing compound at 1 mg/L assessed as SeMetSeCys level measured after 40 days after compound treatment; assay type: ADME; conditions: 960 h

O=[Se]([O-])[O-].[Na+].[Na+] [SODIUM SELENITE]
Activity (Root [1]): 0.36 mg/kg | Activity (Leaf [2]): 0.2 mg/kg | Activity (Fruit [3]): 0.4 mg/kg | Drug uptake (Leaf [4]): 2 mg/kg | Drug uptake (Root [5]): 20 mg/kg | Drug uptake (Fruit [6]): 27 mg/kg | Activity (Root [7]): 53 mg/kg | Activity (Leaf [8]): 7.5 mg/kg | Activity (Fruit [9]): 48 mg/kg | Drug uptake (Leaf [10]): 1.54 mg/kg | Drug uptake (Root [11]): 21 mg/kg | Drug uptake (Fruit [12]): 10 mg/kg | Activity (Brassica oleracea [13]): 175 mg/kg | Activity (Brassica oleracea [14]): 155 mg/kg | Activity (Brassica oleracea [15]): 177 mg/kg | Activity (Brassica oleracea [16]): Active | Activity (Brassica oleracea [17]): Active | Drug uptake (Fruit [18]): 0.039 mg/kg | Drug uptake (Fruit [19]): 0.24 mg/kg | Drug uptake (Fruit [20]): 6.5 mg/kg | Drug uptake (Leaf [21]): 0.62 mg/kg | Drug uptake (Leaf [22]): 0.09 mg/kg | Drug uptake (Leaf [23]): 0.65 mg/kg | Activity (Brassica oleracea [24]): Active | Activity (Brassica oleracea [25]): 40% | Activity (Brassica oleracea [26]): 148 mg/kg | Drug uptake (Root [27]): 1.6 mg/kg | Drug uptake (Root [28]): 5.4 mg/kg | Drug uptake (Root [29]): 3.4 mg/kg | Drug uptake (Fruit [30]): 7.2 mg/kg | Drug uptake (Fruit [31]): 1.89 mg/kg | Drug uptake (Leaf [32]): 0.59 mg/kg | Drug uptake (Fruit [33]): 12.3 mg/kg | Drug uptake (Leaf [34]): 0.082 mg/kg | Drug uptake (Root [35]): 6.1 mg/kg | Drug uptake (Leaf [36]): 0.71 mg/kg | Drug uptake (Root [37]): 1.4 mg/kg | Drug uptake (Root [38]): 3.6 mg/kg
